We go through 39 molecules from ChEMBL document CHEMBL5038649, “Chemical Space Expansion of Flavonoids: Induction of Mitotic Inhibition by Replacing Ring B with a 10π-Electron System, Benzo[b]thiophene” (J Nat Prod, 2022).

Holding throughout (format): functional, cell-based
In assay [1] the test system is A549. Put plainly: Antiproliferative activity against human A549 cells assessed as reduction in cell viability after 72 hrs by SRB assay. The settings on record: A549, 72 h. For orientation: Sulforhodamine B stains cellular protein and so reports cell mass.
Assay [2] can be described thus: Antiproliferative activity against human KB-VIN cells assessed as reduction in cell viability after 72 hrs by SRB assay. The note with it: KBVIN.
The test system of assay [3] is MDA-MB-231. Put plainly: Antiproliferative activity against human MDA-MB-231 cells assessed as reduction in cell viability after 72 hrs by SRB assay. The settings on record: MDA-MB-231, 72 h.
For assay [4], the system named is MCF7. Put plainly: Antiproliferative activity against human MCF7 cells assessed as reduction in cell viability after 72 hrs by SRB assay. The note with it: MCF7, 72 h.
In assay [5] the test system is KB. Description: Antiproliferative activity against human KB cells assessed as reduction in cell viability after 72 hrs by SRB assay.

Consider `CC(C)=CCc1cc(C(=O)/C=C/c2csc3ccccc23)c(O)cc1O`, for which the IC50 stood at 6 µM in assay [1]; 5.4 µM in assay [2]; 8.9 µM in assay [3]; 7.4 µM in assay [4]; 7.6 µM in assay [5].

For the molecule `O=C(/C=C/c1csc2ccccc12)c1cc2c(cc1O)OCO2`, the IC50 in assay [1] was 4.8 µM; in assay [2] it was 2.1 µM; in assay [3], 6.2 µM; in assay [4], 6.9 µM; in assay [5] it was 5.1 µM.

`COc1c(OC(C)C)cc2occ(-c3ccccc3)c(=O)c2c1O`: the IC50 in assay [1], in assay [2], in assay [3], in assay [4] and in assay [5] was more than 10 µM throughout.

For `COc1c(OC(C)C)cc2c(c1OC(C)C)C(=O)/C(=C/c1csc3ccccc13)O2`, the IC50 in assay [1], in assay [2], in assay [3], in assay [4] and in assay [5] was more than 10 µM throughout.

On to `COc1ccc(C(=O)/C=C/c2csc3ccccc23)c(O)c1`, for which the IC50 in assay [1] was determined as 5.6 µM; in assay [2], 4.8 µM; in assay [3], 7.4 µM; in assay [4], 7.5 µM; in assay [5], 5.6 µM.

`COc1c(OC(C)C)cc2occ(-c3csc4ccccc34)c(=O)c2c1OC(C)C`: the IC50 in assay [1] is 8.9 µM; in assay [2], 7.3 µM; in assay [3], more than 10 µM; in assay [4], more than 10 µM; in assay [5] it was more than 10 µM.

Regarding `O=C(/C=C/c1ccc(Cl)cc1)c1csc2ccccc12`, the IC50 stood at 6.6 µM in assay [1]; 5.5 µM in assay [2]; 7.3 µM in assay [3]; 9.7 µM in assay [4]; 8.1 µM in assay [5].

Turning to `COc1c(OC(C)C)cc2occ(-c3csc4ccccc34)c(=O)c2c1O`, the IC50 in assay [1] is 7.2 µM; in assay [2], more than 10 µM; in assay [3] it was more than 10 µM; in assay [4], more than 10 µM; in assay [5] it was more than 10 µM.

With `O=C(/C=C/c1csc2ccccc12)c1ccccc1O`, the IC50 in assay [1] stood at 5.3 µM; in assay [2] it was 5.4 µM; in assay [3] it was 5.3 µM; in assay [4], 6.6 µM; in assay [5], 6.2 µM.

Turning to `COc1cc2c(=O)c(-c3csc4ccccc34)coc2c(OC)c1OC`, the IC50 in assay [1], in assay [2], in assay [3], in assay [4] and in assay [5] was more than 10 µM throughout.

Take `O=C(/C=C/c1csc2ccccc12)c1ccc2ccccc2c1O`: the IC50 in assay [1] was 7.2 µM; in assay [2] it was 8.2 µM; in assay [3], more than 10 µM; in assay [4], more than 10 µM; in assay [5], more than 40 µM.

Consider `O=C(/C=C/c1ccccc1)c1csc2ccccc12`, for which the IC50 in assay [1] was 9.1 µM; in assay [2], 5.8 µM; in assay [3], 6.7 µM; in assay [4] it was more than 10 µM; in assay [5], 6.3 µM.

Regarding `COc1c(OC(C)C)cc2oc(-n3cncn3)c(-c3csc4ccccc34)c(=O)c2c1OC(C)C`, the IC50 in assay [1] is more than 10 µM; in assay [2], 5 µM; in assay [3] it was more than 10 µM; in assay [4] it was more than 10 µM; in assay [5], more than 10 µM.

As for `CCOc1c(OC)cc2occ(-c3csc4ccccc34)c(=O)c2c1OC`, the IC50 in assay [1] was determined as 4.8 µM; in assay [2] it was 0.84 µM; in assay [3], 5.2 µM; in assay [4] it was 4 µM; in assay [5], 4 µM.

For `O=C(/C=C/c1c[nH]c2ccccc12)c1cc(Cl)ccc1O`, the IC50 amounted to 0.75 µM in assay [1]; 0.8 µM in assay [2]; 0.99 µM in assay [3]; 5.7 µM in assay [4]; 0.91 µM in assay [5].

As to `COc1cccc(/C=C/C(=O)c2csc3ccccc23)c1`, the IC50 in assay [1] turned out to be 5.5 µM; in assay [2], 5.4 µM; in assay [3], 6.2 µM; in assay [4], 7.5 µM; in assay [5] it was 5.7 µM.

For `CCOc1cc2occ(-c3csc4ccccc34)c(=O)c2c(OCC)c1OC`, the IC50 is 2.6 µM in assay [1]; 0.67 µM in assay [2]; 1 µM in assay [3]; 3.1 µM in assay [4]; 4.2 µM in assay [5].

Regarding `CC(C)Oc1ccc(/C=C/C(=O)c2csc3ccccc23)cc1`, the IC50 in assay [1], in assay [2], in assay [3], in assay [4] and in assay [5] was more than 10 µM each time.

Take `O=C(/C=C/c1csc2ccccc12)c1cc(Br)cc(Br)c1O`: the IC50 in assay [1] is 4.2 µM; in assay [2], 1 µM; in assay [3], 4.3 µM; in assay [4], 5.8 µM; in assay [5] it was 4.8 µM.

`O=C(/C=C/c1csc2ccccc12)c1cccc(Cl)c1`: the IC50 in assay [1], in assay [2], in assay [3], in assay [4] and in assay [5] was more than 10 µM each time.

With `O=C(/C=C/c1csc2ccccc12)c1cc(Br)ccc1O`, the IC50 is 0.66 µM in assay [1]; 0.47 µM in assay [2]; 0.84 µM in assay [3]; 1.04 µM in assay [4]; 0.76 µM in assay [5].

With `COc1c(OC(C)C)cc2occ(-c3ccccc3)c(=O)c2c1OC(C)C`, the half-inhibitory concentration (IC50) in assay [1], in assay [2], in assay [3], in assay [4] and in assay [5] was more than 10 µM in each case.

In the case of `O=C(/C=C/c1cc2ccccc2s1)c1cc(Cl)ccc1O`, the IC50 in assay [1], in assay [2], in assay [3], in assay [4] and in assay [5] was more than 10 µM in each case.

For the molecule `COc1c(O)cc2occ(-c3ccccc3)c(=O)c2c1O`, the IC50 in assay [1], in assay [2], in assay [3], in assay [4] and in assay [5] was more than 10 µM in each case.

As to `O=C(/C=C/c1ccccc1)c1c(O)ccc2ccccc12`, the IC50 in assay [1], in assay [2], in assay [3], in assay [4] and in assay [5] was more than 10 µM each time.

`O=C(/C=C/c1cc2ccccc2s1)c1cc(Br)ccc1O`: the IC50 in assay [1], in assay [2], in assay [3], in assay [4] and in assay [5] was more than 10 µM in each case.

In the case of `CCOc1ccc(O)c(C(=O)/C=C/c2csc3ccccc23)c1`, the IC50 in assay [1] worked out at 5.4 µM; in assay [2] it was 4.1 µM; in assay [3] it was 6.7 µM; in assay [4], 7.5 µM; in assay [5], 5.8 µM.

Consider `O=C(/C=C/c1csc2ccccc12)c1cc(Cl)cc(Cl)c1O`, for which the IC50 in assay [1] came to 3.7 µM; in assay [2], 0.83 µM; in assay [3] it was 3.3 µM; in assay [4], 5.8 µM; in assay [5] it was 4.6 µM.

On to `COc1cc2occ(-c3csc4ccccc34)c(=O)c2c(OC)c1O`, for which the IC50 in assay [1], in assay [2], in assay [3], in assay [4] and in assay [5] was more than 10 µM throughout.

Take `COc1ccc(O)c(/C=C/C(=O)c2csc3ccccc23)c1`: the IC50 stood at 4.7 µM in assay [1]; 4.4 µM in assay [2]; 5.4 µM in assay [3]; 5.9 µM in assay [4]; 5 µM in assay [5].

Regarding `CC(C)Oc1ccc(O)c(C(=O)/C=C/c2csc3ccccc23)c1`, the IC50 in assay [1] turned out to be 6.4 µM; in assay [2], 5.6 µM; in assay [3], 8.5 µM; in assay [4], 6.6 µM; in assay [5] it was 10 µM.

Regarding `COc1c(OC(C)C)cc2oc(-n3cncn3)c(-c3ccccc3)c(=O)c2c1OC(C)C`, the IC50 in assay [1], in assay [2], in assay [3], in assay [4] and in assay [5] was more than 10 µM throughout.

For the molecule `COc1ccc(OC)c(C(=O)/C=C/c2csc3ccccc23)c1`, the IC50 in assay [1] is 4.1 µM; in assay [2] it was 3.7 µM; in assay [3], 5.4 µM; in assay [4] it was 5.5 µM; in assay [5], 4.6 µM.

Turning to `COc1cc(O)c(C(=O)/C=C/c2csc3ccccc23)c(OC)c1OC`, the IC50 was determined as 5.3 µM in assay [1]; 4.9 µM in assay [2]; 6.9 µM in assay [3]; 7.7 µM in assay [4]; 6.7 µM in assay [5].

As for `O=C(/C=C/c1csc2ccccc12)c1cc(F)ccc1O`, the IC50 in assay [1] was 7.1 µM; in assay [2], 5.4 µM; in assay [3], 8.4 µM; in assay [4], more than 10 µM; in assay [5], 7.4 µM.

For the molecule `COc1c(O)cc2occ(-c3csc4ccccc34)c(=O)c2c1O`, the IC50 in assay [1], in assay [2], in assay [3], in assay [4] and in assay [5] was more than 10 µM throughout.

For `COc1ccc(/C=C/C(=O)c2csc3ccccc23)cc1OC`, the IC50 in assay [1] came out at 5.2 µM; in assay [2], 4.7 µM; in assay [3], 6.6 µM; in assay [4], 9.4 µM; in assay [5], 4.9 µM.

As for `O=C(/C=C/c1cc2ccccc2s1)c1cc(Cl)cc(Cl)c1O`, the IC50 in assay [1] was 6.9 µM; in assay [2] it was 5.8 µM; in assay [3], 7.5 µM; in assay [4], 9.9 µM; in assay [5], 7.8 µM.

In the case of `O=c1c(-c2ccccc2)coc2ccccc12` [ISOFLAVONE], the IC50 in assay [1], in assay [2], in assay [3], in assay [4] and in assay [5] was more than 10 µM each time.

The IC50 is the midpoint of a concentration-inhibition curve.
